The text below walks through data of PMC11002876, “KcsA-Kv1.x chimeras with complete ligand-binding sites provide improved predictivity for screening selective Kv1.x blockers” (The Journal of Biological Chemistry, 2024).

What is called IC50 is the concentration needed to halve the response being measured.

Like-named read-outs stand apart in the source and are kept apart here. Where a SMILES comes first, the peptide text is derived from it.

In assay [1] the target is T1, KcsA-Kv1.2 T+F chimera (Streptomyces lividans, UniProt P0A334, A54E/A57S/G53D/G56E/I60P/L59F/L81M/P55R/R52A/R64D/T61S/V84T/Y62I/Y82V).
T1 sequence (P0A334 1-160 R52A/G53D/A54E/P55R/G56E/A57S/L59F/I60P/T61S/Y62I/R64D/L81M/Y82V/V84T): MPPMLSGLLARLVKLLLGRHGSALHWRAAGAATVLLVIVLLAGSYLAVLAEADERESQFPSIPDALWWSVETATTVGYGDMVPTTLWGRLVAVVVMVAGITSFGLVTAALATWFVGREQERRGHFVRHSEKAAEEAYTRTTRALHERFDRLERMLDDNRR
Briefly: Phage-binding competition assay, KcsA-Kv1.2 T+F. Also noted: species or system human Kv1.2 turret and filter in Streptomyces lividans KcsA. As to the method:
(§1) Phage stock solutions were diluted to working concentration with phage resuspension buffer supplemented with 2 mM DDM. For protein immobilization, the following amounts were used in a final volume of 50 μl/well: wt KcsA, 0.1 μg; KcsA-Kv1.1 T-only, 0.005 μg; KcsA-Kv1.1 T+F, 0.02 μg; KcsA-Kv1.2 T-only, 0.01 μg; KcsA-Kv1.2 T+F, 0.1 μg; KcsA-Kv1.3 T-only, 0.01 μg; and KcsA-Kv1.3 T+F, 0.1 μg. Protein samples were diluted in 50 μl of storage buffer (20 mM Tris pH8.0, 300 mM KCl, 2 mM DDM) and were added to the designated wells of a Pierce Clear, 96-Well Nickel Coated Plate (15442, Thermo Fisher Scientific), then incubated for 1 h at room temperature on a horizontal shaker at 130 rpm. The plate was blocked for 1 h at room temperature with 180 μl/well TBS-BSA supplemented with 1 mM DDM. Following blocking, the wells were washed 4× with washing buffer (300 μl TBS-Tween, 0.1% v/v) using a Wellwash Versa microplate washer (Thermo Fisher Scientific); then 50 μl phage solution (in TBS-BSA-Tween, 0.1% v/v, 2 mM DDM) at determined phage concentration was added to the wells and incubated for 1 h at room temperature on a horizontal shaker. The plate was washed 4× with washing buffer, then 50 μl anti-M13 IgG HRP (MA5-36125, Invitrogen) diluted to 1:2500 in TBS-Tween (0.1% v/v) was added to the wells and incubated for 1 h at room temperature. The plate was washed again 4× with 300 μl/well washing buffer. Finally, 50 μl/well 1-Step Ultra TMB-ELISA solution (34028, Thermo Fisher Scientific) was added to the wells, and the developing signal was stopped with 50 μl 1M HCl after 5 to 10 min. The light absorbance signal was read at 450 nm with Byonoy absorbance 96 plate reader (Byonoy GmbH).
(§2) For protein immobilization, the following amounts were used in a final volume of 50 μl/well: KcsA-Kv1.1 T-only, 0.005 μg; KcsA-Kv1.1 T+F, 0.01 μg; KcsA-Kv1.2 T-only, 0.025 μg; KcsA-Kv1.2 T+F, 0.0125 μg; KcsA-Kv1.3 T-only, 0.01 μg; and KcsA-Kv1.3 T+F, 0.1 μg. Protein samples were diluted in storage buffer. Binding of given concentrations of relevant ligand-displaying phages quantified by light absorbance ([…]) were investigated in a similar manner as in phage ELISA-binding assay, while different concentrations of competing toxin test substances were applied simultaneously. The results were converted to percent inhibitions (percent displacement) of the indicator phage binding, and relative affinities of the tested toxins were assessed by plotting percent displacements against log concentrations and determining half maximal inhibitory concentrations (IC50) by sigmoidal curve fitting using “Sigmoidal dose-response (variable slope) with least squares method” algorithm in GraphPad Prism 8 using the following equation: Y=Bottom+Top−Bottom/1+10^(LogEC50−×)⋅HillSlope

Assay [2] concerns the target T2, KcsA-Kv1.2 T+F chimera (Streptomyces lividans, UniProt P0A334, R52A/G53D/A54E/P55R/G56E/A57S/L59F/I60P/T61S/Y62I/R64D/L81M/Y82V/V84T).
T2 sequence (P0A334 1-160 R52A/G53D/A54E/P55R/G56E/A57S/L59F/I60P/T61S/Y62I/R64D/L81M/Y82V/V84T): T1 sequence (P0A334 1-160 R52A/G53D/A54E/P55R/G56E/A57S/L59F/I60P/T61S/Y62I/R64D/L81M/Y82V/V84T)
The assay can be described thus: Phage-binding competition assay, KcsA-Kv1.2 T+F. More on the design: species or system human Kv1.2 turret and filter in Streptomyces lividans KcsA. As to conditions: rank by competition IC50 among MTX, ShK, KTX1. As to the method:
as §1, §2

[3] abbreviates: displacement of HgTx1-phage, KcsA-Kv1.2 T+F 0.0125 μg/well on nickel-coated plate, mean ± SD (n = 3), read-out: IC50, T+F chimera (Kv1.2).

Regarding `CC[C@H](C)[C@H](NC(=O)[C@H](CCC(=O)O)NC(=O)[C@@H](NC(=O)CN)C(C)C)C(=O)N[C@@H](CC(N)=O)C(=O)N[C@H](C(=O)N[C@@H](CCCCN)C(=O)N[C@H]1CSSC[C@@H]2NC(=O)[C@H](CCCCN)NC(=O)CNC(=O)[C@H](Cc3ccccc3)NC(=O)[C@H](CCCNC(=N)N)NC(=O)[C@H](CCSC)NC(=O)CNC(=O)[C@H](C)NC(=O)[C@H](CC(=O)O)NC(=O)[C@H](CCCCN)NC(=O)[C@@H]3CSSC[C@@H](C(=O)N[C@H](C(=O)N4CCC[C@H]4C(=O)N[C@@H](CCCCN)C(=O)O)[C@@H](C)O)NC(=O)[C@H](Cc4c[nH]cn4)NC(=O)[C@H](CSSC[C@H](NC(=O)[C@H](CCC(N)=O)NC(=O)[C@@H]4CCCN4C(=O)[C@H](CO)NC(=O)CNC(=O)[C@H](CO)NC1=O)C(=O)N[C@@H](CC(C)C)C(=O)N[C@@H](CCCCN)C(=O)N1CCC[C@H]1C(=O)N3)NC(=O)[C@H](CCCCN)NC(=O)[C@H](CCCNC(=N)N)NC(=O)[C@H](CC(N)=O)NC(=O)[C@H](CCSC)NC2=O)C(C)C` [KTX1, Kaliotoxin-1], the IC50 on KcsA-Kv1.2 T+F chimera [1] (setting [3]) came out at 205 nM. The “Rank, T+F chimera (Kv1.2)” value on KcsA-Kv1.2 T+F chimera [2] came to 3.
As for `CC[C@H](C)[C@@H]1NC(=O)[C@@H]2CSSC[C@H](NC(=O)[C@H](CO)NC(=O)[C@@H](N)C(C)C)C(=O)N[C@@H]([C@@H](C)O)C(=O)NCC(=O)N[C@@H](CO)C(=O)N[C@@H](CCCCN)C(=O)N[C@@H](CC(=O)O)C(=O)N[C@@H](CSSC[C@@H](C(=O)N[C@@H](CCCCN)C(=O)N[C@H]3CSSC[C@@H](C(N)=O)NC(=O)CNC(=O)[C@H](Cc4ccc(O)cc4)NC3=O)NC(=O)[C@H](CO)NC(=O)[C@H](CCCCN)NC(=O)[C@H](CC(N)=O)NC1=O)C(=O)N[C@@H](Cc1ccc(O)cc1)C(=O)N[C@@H](C)C(=O)N1CCC[C@H]1C(=O)N[C@H]1CSSC[C@H](NC(=O)CNC(=O)[C@H]([C@@H](C)O)NC(=O)[C@H](CCC(N)=O)NC(=O)[C@H](CCCCN)NC(=O)[C@H](CCCNC(=N)N)NC1=O)C(=O)N1CCC[C@H]1C(=O)N[C@@H](CC(N)=O)C(=O)N[C@@H](C)C(=O)N[C@@H](CCCCN)C(=O)N2` [MTX, Maurotoxin] (HELM PEPTIDE1{V.S.C.T.G.S.K.D.C.Y.A.P.C.R.K.Q.T.G.C.P.N.A.K.C.I.N.K.S.C.K.C.Y.G.C.[am]}$PEPTIDE1,PEPTIDE1,3:R3-24:R3|PEPTIDE1,PEPTIDE1,9:R3-29:R3|PEPTIDE1,PEPTIDE1,13:R3-19:R3|PEPTIDE1,PEPTIDE1,31:R3-34:R3$$$V2.0; N-terminus and C-terminus assumed), on KcsA-Kv1.2 T+F chimera [1] (HgTx1-phage competition, KcsA-Kv1.2 T+F, value given in figure, sigmoidal fit to means of three replicates, read-out: IC50 (Fig. 7F)), the IC50 was found to be 0.129 nM. At KcsA-Kv1.2 T+F chimera [2], the “Rank, T+F chimera (Kv1.2)” value was 1.
In the case of `CC[C@H](C)[C@@H]1NC(=O)[C@@H](NC(=O)[C@H](CO)NC(=O)[C@@H](N)CCCNC(=N)N)CSSC[C@@H](C(=O)O)NC(=O)[C@H]([C@@H](C)O)NC(=O)CNC(=O)[C@@H]2CSSC[C@@H]3NC(=O)[C@H](CCC(N)=O)NC(=O)[C@H](Cc4ccccc4)NC(=O)[C@H](C)NC(=O)[C@H]([C@@H](C)O)NC(=O)[C@H](CSSC[C@H](NC(=O)[C@H](Cc4ccccc4)NC(=O)[C@H](CO)NC(=O)[C@H](CC(C)C)NC(=O)[C@H](CCCNC(=N)N)NC(=O)[C@H](Cc4ccc(O)cc4)NC(=O)[C@H](CCCCN)NC(=O)[C@H](CCSC)NC(=O)[C@H](CO)NC(=O)[C@H](Cc4c[nH]cn4)NC(=O)[C@H](CCCCN)NC3=O)C(=O)N[C@@H](CCCNC(=N)N)C(=O)N[C@@H](CCCCN)C(=O)N[C@@H]([C@@H](C)O)C(=O)N2)NC(=O)[C@H](CCCNC(=N)N)NC(=O)[C@H](CO)NC(=O)[C@H](CCCCN)NC(=O)[C@@H]2CCCN2C(=O)[C@H]([C@@H](C)CC)NC(=O)[C@H]([C@@H](C)O)NC(=O)[C@H](CC(=O)O)NC1=O` [ShK, Stichodactyla toxin], on KcsA-Kv1.2 T+F chimera [1] (setting [3]), the IC50 was 15.9 nM. Moreover, the “Rank, T+F chimera (Kv1.2)” value at KcsA-Kv1.2 T+F chimera [2] came out at 2.
